Source: PubChem BioAssay AID1745844 (Carcinogenic Potency Database (CPDB), 2022)
“And” between values parts separate entries of the source, which are not always exact repeats. Equal entries are not always repeated. The source made the active and inactive calls. The rule behind the calls is not given here.

Test system: rodent lifetime carcinogenesis bioassay, tumor incidence TD50
Experiment: carcinogenic potency in animals, long-term in vivo studies, CPDB compilation (AID 1745844)

SMILES: FC(F)=C(F)F
- TD50 (mouse, strain B6C3F1, females, inhaled, site: Harderian gland, lesion: adenoma, dosed 95 weeks, study length 95 weeks): 1470 mg/kg/day
- TD50 (mouse, strain B6C3F1, females, inhaled, site: all sites + liver, lesion: histiocytic sarcoma + hemangioma + hemangiosarcoma + hepatocellular adenoma + hepatocellular carcinoma, dosed 95 weeks, study length 95 weeks): 54 mg/kg/day
- TD50 (mouse, strain B6C3F1, females, inhaled, site: all sites, lesion: hemangioma + hemangiosarcoma, dosed 95 weeks, study length 95 weeks): 61.3 mg/kg/day
- TD50 (mouse, strain B6C3F1, females, inhaled, site: all sites, lesion: hemangioma, dosed 95 weeks, study length 95 weeks): 835 mg/kg/day
- TD50 (mouse, strain B6C3F1, females, inhaled, site: all sites, lesion: hemangiosarcoma, dosed 95 weeks, study length 95 weeks): 66.5 mg/kg/day
- TD50 (mouse, strain B6C3F1, females, inhaled, site: all sites, lesion: histiocytic sarcoma, dosed 95 weeks, study length 95 weeks): 176 mg/kg/day
- TD50 (mouse, strain B6C3F1, females, inhaled, site: any site (literature study), lesion: several types, types named in the paper, dosed 95 weeks, study length 95 weeks): 48.4 mg/kg/day
- TD50 (mouse, strain B6C3F1, females, inhaled, site: liver, lesion: hemangioma + hemangiosarcoma, dosed 95 weeks, study length 95 weeks): 61.3 mg/kg/day
- TD50 (mouse, strain B6C3F1, females, inhaled, site: liver, lesion: hemangioma, dosed 95 weeks, study length 95 weeks): 530 mg/kg/day
- TD50 (mouse, strain B6C3F1, females, inhaled, site: liver, lesion: hemangiosarcoma, dosed 95 weeks, study length 95 weeks): 66.5 mg/kg/day
- TD50 (mouse, strain B6C3F1, females, inhaled, site: liver, lesion: hepatocellular adenoma + hepatoblastoma + hepatocellular carcinoma, dosed 95 weeks, study length 95 weeks): 63.3 mg/kg/day
- TD50 (mouse, strain B6C3F1, females, inhaled, site: liver, lesion: hepatocellular adenoma + hepatocellular carcinoma, dosed 95 weeks, study length 95 weeks): 63.3 mg/kg/day
- TD50 (mouse, strain B6C3F1, females, inhaled, site: liver, lesion: hepatocellular adenoma, dosed 95 weeks, study length 95 weeks): 217 mg/kg/day
- TD50 (mouse, strain B6C3F1, females, inhaled, site: liver, lesion: hepatocellular carcinoma, dosed 95 weeks, study length 95 weeks): 80.8 mg/kg/day
- TD50 (mouse, strain B6C3F1, females, inhaled, site: lung, lesion: alveolar/bronchiolar adenoma + alveolar/bronchiolar carcinoma + carcinoma, dosed 95 weeks, study length 95 weeks): 1640 mg/kg/day
- TD50 (mouse, strain B6C3F1, females, inhaled, site: lung, lesion: alveolar/bronchiolar adenoma + alveolar/bronchiolar carcinoma, dosed 95 weeks, study length 95 weeks): 1010 mg/kg/day
- TD50 (mouse, strain B6C3F1, females, inhaled, site: pituitary gland, lesion: pars distalis adenoma, dosed 95 weeks, study length 95 weeks): 1450 mg/kg/day
- TD50 (mouse, strain B6C3F1, males, inhaled, site: Harderian gland, lesion: adenoma + carcinoma, dosed 95 weeks, study length 95 weeks): 1270 mg/kg/day
- TD50 (mouse, strain B6C3F1, males, inhaled, site: Harderian gland, lesion: adenoma, dosed 95 weeks, study length 95 weeks): 1390 mg/kg/day
- TD50 (mouse, strain B6C3F1, males, inhaled, site: all sites + liver, lesion: histiocytic sarcoma + hemangioma + hemangiosarcoma + hepatocellular adenoma + hepatocellular carcinoma, dosed 95 weeks, study length 95 weeks): 71.6 mg/kg/day
- TD50 (mouse, strain B6C3F1, males, inhaled, site: all sites, lesion: hemangioma + hemangiosarcoma, dosed 95 weeks, study length 95 weeks): 88.3 mg/kg/day
- TD50 (mouse, strain B6C3F1, males, inhaled, site: all sites, lesion: hemangioma, dosed 95 weeks, study length 95 weeks): 297 mg/kg/day
- TD50 (mouse, strain B6C3F1, males, inhaled, site: all sites, lesion: hemangiosarcoma, dosed 95 weeks, study length 95 weeks): 109 mg/kg/day
- TD50 (mouse, strain B6C3F1, males, inhaled, site: all sites, lesion: histiocytic sarcoma, dosed 95 weeks, study length 95 weeks): 429 mg/kg/day
- TD50 (mouse, strain B6C3F1, males, inhaled, site: any site (literature study), lesion: several types, types named in the paper, dosed 95 weeks, study length 95 weeks): 69.9 mg/kg/day
- TD50 (mouse, strain B6C3F1, males, inhaled, site: liver, lesion: hemangioma + hemangiosarcoma, dosed 95 weeks, study length 95 weeks): 87 mg/kg/day
- TD50 (mouse, strain B6C3F1, males, inhaled, site: liver, lesion: hemangioma, dosed 95 weeks, study length 95 weeks): 308 mg/kg/day
- TD50 (mouse, strain B6C3F1, males, inhaled, site: liver, lesion: hemangiosarcoma, dosed 95 weeks, study length 95 weeks): 108 mg/kg/day
- TD50 (mouse, strain B6C3F1, males, inhaled, site: liver, lesion: hepatocellular adenoma + hepatoblastoma + hepatocellular carcinoma, dosed 95 weeks, study length 95 weeks): 91 mg/kg/day
- TD50 (mouse, strain B6C3F1, males, inhaled, site: liver, lesion: hepatocellular adenoma + hepatocellular carcinoma, dosed 95 weeks, study length 95 weeks): 91 mg/kg/day
- TD50 (mouse, strain B6C3F1, males, inhaled, site: liver, lesion: hepatocellular adenoma, dosed 95 weeks, study length 95 weeks): 222 mg/kg/day
- TD50 (mouse, strain B6C3F1, males, inhaled, site: liver, lesion: hepatocellular carcinoma, dosed 95 weeks, study length 95 weeks): 190 mg/kg/day
- TD50 (mouse, strain B6C3F1, males, inhaled, site: lung, lesion: alveolar/bronchiolar adenoma + alveolar/bronchiolar carcinoma + carcinoma, dosed 95 weeks, study length 95 weeks): 216 mg/kg/day
- TD50 (mouse, strain B6C3F1, males, inhaled, site: lung, lesion: alveolar/bronchiolar adenoma + alveolar/bronchiolar carcinoma, dosed 95 weeks, study length 95 weeks): 220 mg/kg/day
- TD50 (mouse, strain B6C3F1, males, inhaled, site: lung, lesion: alveolar/bronchiolar adenoma, dosed 95 weeks, study length 95 weeks): 348 mg/kg/day
- TD50 (mouse, strain B6C3F1, males, inhaled, site: lung, lesion: alveolar/bronchiolar carcinoma + carcinoma, dosed 95 weeks, study length 95 weeks): 830 mg/kg/day
- TD50 (mouse, strain B6C3F1, males, inhaled, site: thyroid gland, lesion: follicular-cell adenoma + follicular-cell carcinoma, dosed 95 weeks, study length 95 weeks): 988 mg/kg/day
- TD50 (mouse, strain B6C3F1, males, inhaled, site: thyroid gland, lesion: follicular-cell adenoma, dosed 95 weeks, study length 95 weeks): 1440 mg/kg/day
- TD50 (rat, strain Fischer 344, females, inhaled, site: all sites + liver, lesion: mononuclear-cell leukemia + hemangiosarcoma + hepatocellular adenoma + hepatocellular carcinoma, dosed 103 weeks, study length 104 weeks): 56.3 mg/kg/day
- TD50 (rat, strain Fischer 344, females, inhaled, site: all sites, lesion: hemangiosarcoma, dosed 103 weeks, study length 104 weeks): 886 mg/kg/day
- TD50 (rat, strain Fischer 344, females, inhaled, site: all sites, lesion: mononuclear-cell leukemia, dosed 103 weeks, study length 104 weeks): 228 mg/kg/day
- TD50 (rat, strain Fischer 344, females, inhaled, site: any site (literature study), lesion: several types, types named in the paper, dosed 103 weeks, study length 104 weeks): 287 mg/kg/day
- TD50 (rat, strain Fischer 344, females, inhaled, site: kidney, lesion: tubule adenoma + tubule carcinoma, dosed 103 weeks, study length 104 weeks): 958 mg/kg/day and 1310 mg/kg/day
- TD50 (rat, strain Fischer 344, females, inhaled, site: kidney, lesion: tubule adenoma, dosed 103 weeks, study length 104 weeks): 1510 mg/kg/day
- TD50 (rat, strain Fischer 344, females, inhaled, site: kidney, lesion: tubule carcinoma, dosed 103 weeks, study length 104 weeks): 7380 mg/kg/day
- TD50 (rat, strain Fischer 344, females, inhaled, site: liver, lesion: hemangiosarcoma, dosed 103 weeks, study length 104 weeks): 886 mg/kg/day
- TD50 (rat, strain Fischer 344, females, inhaled, site: liver, lesion: hepatocellular adenoma + hepatoblastoma + hepatocellular carcinoma, dosed 103 weeks, study length 104 weeks): 156 mg/kg/day
- TD50 (rat, strain Fischer 344, females, inhaled, site: liver, lesion: hepatocellular adenoma + hepatocellular carcinoma, dosed 103 weeks, study length 104 weeks): 156 mg/kg/day
- TD50 (rat, strain Fischer 344, females, inhaled, site: liver, lesion: hepatocellular adenoma, dosed 103 weeks, study length 104 weeks): 528 mg/kg/day
- TD50 (rat, strain Fischer 344, females, inhaled, site: liver, lesion: hepatocellular carcinoma, dosed 103 weeks, study length 104 weeks): 251 mg/kg/day
- TD50 (rat, strain Fischer 344, males, inhaled, site: all sites, lesion: mononuclear-cell leukemia, dosed 103 weeks, study length 104 weeks): 59.7 mg/kg/day
- TD50 (rat, strain Fischer 344, males, inhaled, site: any site (literature study), lesion: several types, types named in the paper, dosed 103 weeks, study length 104 weeks): 35.4 mg/kg/day
- TD50 (rat, strain Fischer 344, males, inhaled, site: kidney, lesion: renal tubule adenoma, bilateral + tubule adenoma + tubule carcinoma, dosed 103 weeks, study length 104 weeks): 292 mg/kg/day and 367 mg/kg/day
- TD50 (rat, strain Fischer 344, males, inhaled, site: kidney, lesion: renal tubule adenoma, bilateral + tubule adenoma, dosed 103 weeks, study length 104 weeks): 242 mg/kg/day and 334 mg/kg/day
- TD50 (rat, strain Fischer 344, males, inhaled, site: liver, lesion: hepatocellular adenoma + hepatoblastoma + hepatocellular carcinoma, dosed 103 weeks, study length 104 weeks): 81.6 mg/kg/day
- TD50 (rat, strain Fischer 344, males, inhaled, site: liver, lesion: hepatocellular adenoma + hepatocellular carcinoma, dosed 103 weeks, study length 104 weeks): 81.6 mg/kg/day
- TD50 (rat, strain Fischer 344, males, inhaled, site: liver, lesion: hepatocellular adenoma, dosed 103 weeks, study length 104 weeks): 136 mg/kg/day
- TD50 (rat, strain Fischer 344, males, inhaled, site: liver, lesion: hepatocellular carcinoma, dosed 103 weeks, study length 104 weeks): 163 mg/kg/day
- TD50 (rat, strain Fischer 344, males, inhaled, site: testis, lesion: interstitial-cell adenoma, bilateral + interstitial-cell adenoma, dosed 103 weeks, study length 104 weeks): 27.5 mg/kg/day

SMILES: ClC1(Cl)C2(Cl)C3C4(Cl)C1(Cl)C1(Cl)C4(Cl)C(Cl)(Cl)C3(Cl)C21Cl (stereo unspecified)
- TD50 (rat, strain Sprague-Dawley, males, in feed, site: liver, lesion: neoplastic nodule, dosed 91 weeks, study length 91 weeks): 6.68 mg/kg/day
- TD50 (rat, strain Sprague-Dawley, males, in feed, site: thyroid gland, lesion: adenoma, dosed 91 weeks, study length 91 weeks): 1.46 mg/kg/day

SMILES: COc1cc(OC)c2c3c(c(=O)oc2c1)CCC3=O
- carcinogen call (rat, strain Fischer, males, by gavage, site: liver, lesion: one or several types, types not named, dosed 52 weeks, study length 74 weeks): negative (inactive)

SMILES: O=[N+]([O-])c1ccc(O)c([N+](=O)[O-])c1
- carcinogen call (mouse, strain DBA, females, in feed, site: mammary gland, lesion: carcinoma, dosed 90 weeks, study length 90 weeks): negative (inactive)

SMILES: Cc1ccccc1N=O
- TD50 (rat, strain Fischer 344, males, in feed, site: liver, lesion: hepatoma, dosed 72 weeks, study length 93 weeks): 59.2 mg/kg/day
- TD50 (rat, strain Fischer 344, males, in feed, site: liver, lesion: several types, types named in the paper, dosed 72 weeks, study length 93 weeks): 50.7 mg/kg/day
- TD50 (rat, strain Fischer 344, males, in feed, site: peritoneal cavity, lesion: mesothelioma, dosed 72 weeks, study length 93 weeks): 195 mg/kg/day
- TD50 (rat, strain Fischer 344, males, in feed, site: peritoneal cavity, lesion: spindle-cell sarcoma, dosed 72 weeks, study length 93 weeks): 303 mg/kg/day
- TD50 (rat, strain Fischer 344, males, in feed, site: skin, lesion: fibroma, dosed 72 weeks, study length 93 weeks): 55.8 mg/kg/day
- TD50 (rat, strain Fischer 344, males, in feed, site: spleen, lesion: fibroma, dosed 72 weeks, study length 93 weeks): 87 mg/kg/day
- TD50 (rat, strain Fischer 344, males, in feed, site: urinary bladder, lesion: papilloma, dosed 72 weeks, study length 93 weeks): 78.8 mg/kg/day
- TD50 (rat, strain Fischer 344, males, in feed, site: urinary bladder, lesion: several types, types named in the paper, dosed 72 weeks, study length 93 weeks): 71.5 mg/kg/day
